In patent US20120309776A1, “PYRROLO[2,3-D]PYRIMIDINE UREA COMPOUNDS AS JAK INHIBITORS” (Pfitzer Inc., priority 2010, published 2012):

System: T-cell proliferation in canine whole blood (ConA and canine IL-2 stimulated)
Experiment: Canine in vitro T-cell Proliferation Assay
Type: cell-based, beagle dogs
Details: Canis lupus familiaris, ConA 1 μg/ml + canine IL-2 50 ng/ml, tritiated thymidine incorporation, average assay results
Method: Introduction: T-cell activation plays a key role in a variety of inflammatory and autoimmune disorders as well as asthma, allergies and pruritus. Since T-cell activation can, in part, can be triggered by cytokines that signal through the JAK-STAT pathway, a JAK inhibitor could be effective against such diseases involving aberrant T-cell activation. […] Methods: Canine whole blood is collected in heparin sulfate tubes from beagle dogs. Whole blood (20 μL) is plated in 96-well plates (Costar) with 180 μL of DMEM complete medium (Dublecco's Modified Eagle Medium; 10% heat inactivated fetal bovine serum; 100 u/ml penicillin; 100 ug/mL streptomycin, from Gibco) containing vehicle control or test compound (0.001 to 10 μM), concanavalin A (ConA; 1 μg/ml), and canine interleukin-2 (IL-2; 50 ng/ml). Wells containing whole blood, medium with vehicle control and no ConA or IL-2 are used as background (BKG) controls. Plates are incubated at 37° C. for 48 hrs. Tritiated thymidine, 0.4 μCi/well (Perkin Elmer), is added for 20 additional hours. Plates are frozen and then thawed, washed and filtered using a Brandel MLR-96 cell harvester and prewet filter mats (Wallac 1205-401, Perkin Elmer). Filters are dried at 60° C. for one hour (Precision 16EG convection oven) and placed into filter sample bags (Wallac 1205-411, Perkin Elmer) with 10 mL of scintillant (Wallac 1205-440, Perkin Elmer). Sealed filters are counted on a LKB Wallac 1205 Betaplate liquid scintillation counter. Data are collected via Gterm Betaplate program v1.1 (Wallac copyright 1989-1990) and transformed into percent inhibition, calculated using the following formula: […]

Row | SMILES | IC50
1 | C[C@@H]1CCN(C(=O)Nc2nncs2)C[C@@H]1N(C)c1ncnc2[nH]ccc12 [Example 1, (3R,4R)-4-methyl-3-[methyl(7H-pyrrolo[2,3-d]pyrimidin-4-yl)amino]-N-(1,3,4-thiadiazol-2-yl)piperidine-1-carboxamide] | 28.5 nM
2 | COc1nsc(NC(=O)N2CC[C@@H](C)[C@@H](N(C)c3ncnc4[nH]ccc34)C2)n1 [Example 2, (3R,4R)-N-(3-methoxy-1,2,4-thiadiazol-5-yl)-4-methyl-3-[methyl(7H-pyrrolo[2,3-d]pyrimidin-4-yl)amino]piperidine-1-carboxamide] | 50 nM
3 | Cc1noc(NC(=O)N2CC[C@@H](C)[C@@H](N(C)c3ncnc4[nH]ccc34)C2)c1C#N [Example 3, (3R,4R)-N-(4-cyano-3-methylisoxazol-5-yl)-4-methyl-3-[methyl(7H-pyrrolo[2,3-d]pyrimidin-4-yl)amino]piperidine-1-carboxamide] | > 10000 nM
4 | CSc1nc(NC(=O)N2CC[C@@H](C)[C@@H](N(C)c3ncnc4[nH]ccc34)C2)n(C)n1 [Example 4, (3R,4R)-4-methyl-N-[1-methyl-3-(methylsulfanyl)-1H-1,2,4-triazol-5-yl]-3-[methyl(7H-pyrrolo[2,3-d]pyrimidin-4-yl)amino]piperidine-1-carboxamide] | > 10000 nM
